Test results reported in patent US20060058268A1, “Compounds and methods for treating diabetic vascular diseases” (priority 2004, published 2006).
Where a name gives a salt, the structure may show the parent alone.

What follows are compounds tested on VCAM-1 (assay: VCAM-1 assay with ELISA readout (Examples 5-6)). Conditions: 16 h, TNF added with compound, incubated overnight (approximately 16 hours).
Format: cell-based
Method: Two to four confluent P150 plates are trypsinized and the cells transferred to a 50 mL conical centrifuge tube. The cells are pelleted, resuspended, and counted using the trypan blue exclusion method.
Cells are resuspended at a concentration of 36,000 cells/mL and 1 mL is aliquoted per well.
Cells are split into 24 well tissue culture plates. The cells in each well should be approximately 90-95% confluent by the following day. Cells should not be older than passage 8.
Compounds are initially screened at 50 μM and 10 μM. A 50 mM stock solution for each compound is prepared in culture medium. The stock solution is diluted to 5 mM and 1 mM. When 10 μL of the 5 mM solution is added to the well (1 mL medium/well), the final concentration will be 50 μM. Adding 10 μL of the 1 mM solution to the well will give a final concentration of 10 μM.
Compounds which will not go into solution in culture medium are resuspended in DMSO at a concentration of 25 mM. The stock solution is then diluted to the final concentration in culture medium. The old medium is aspirated and 1 mL of the new medium with the compound is added. For example, if the final concentration is 50 µM, the 2 μL of the 25 mM stock is added per mL of culture medium. The […] solution is diluted for lower concentrations.
The compounds are added to the plate (each compound is done in duplicate). One plate is done for VCAM expression and one plate is done for ICAM expression.
Immediately after the compounds are added, TNF is added to each well. 100 units/mL TNF is usually added to each well. Since each lot of TNF varies in the number of units, each new lot is titrated to determine the optimum concentration. Therefore this concentration will change. If 100 units/mL is being used, dilute the TNF to 10 units/μL and add 10 μL to each well.
The plates are incubated at 37° C., 5% CO2 overnight (approximately 16 hours). The next day the plates are checked under the microscope to see if there are any visual signs of toxicity. Records are made of any cell death, debris, or morphology changes, as well as insoluble compounds (particulate or turbity).
In order to assess MCP-1, the media (500 μL) is saved and frozen at −70° C. Wash cells once with roughly 1 ml/well of Hanks Balance Salt Solution (HBSS) or PBS. Gently empty the wash solution and then tap the plate onto paper towels. Add either 250 μL/well of HBSS+5% FCCS to the plank (no primary antibody wells) or 250 μL/well of primary antibody diluted in HBSS+5% FCS. Incubate for 30 minutes at 37° C. Wash the wells twice with 0.5 mL/well HBSS or PBS and gently tap the plates onto paper towels after the last wash. Add 250 μL/well of HRP-conjugated second antibody diluted in HBSS+5% FCS to every well including the blank wells (no primary antibody). Incubate at 37° C. for 30 minutes. Wash the wells four times with 0.5 mL/well HBSS or PBS and gently tap the plates onto paper towels after the last wash. Add 250 μL/well of substrate solution. Incubate at room temperature in the dark until there is adequate color development (blue). Note the length of time incubation was performed (typically 15-30 minutes). Add 75 μL/well stopper solution (8N sulfuric acid), and read at 450 nm.

Row | Compound | IC50 [µM]
1 | CC(C)(Sc1cc(C(C)(C)C)c(O)c(C(C)(C)C)c1)Sc1cc(C(C)(C)C)c(OC(=O)c2ccc([N+](=O)[O-])o2)c(C(C)(C)C)c1 [2-Furancarboxylic acid, 5-nitro-, 4-[[1-[[3,5-bis(1,1-dimethylethyl)-4-hydroxyphenyl]thio]-1-methylethyl]thio]-2,6-bis(1,1-dimethylethyl)phenyl ester] | 25
2 | CC(C)(Sc1ccc(OCCCC(=O)O)cc1)Sc1cc(C(C)(C)C)c(O)c(C(C)(C)C)c1 [Butanoic acid, 4-[4-[[1-[[3,5-bis(1,1-dimethylethyl)-4-hydroxyphenyl]thio]-1-methylethyl]thio]phenoxy]-] | 19
3 | CC(C)(Sc1cc(C(C)(C)C)c(O)c(C(C)(C)C)c1)Sc1cc(C(C)(C)C)c(OC[C@H]2OC(O)[C@H](O)[C@@H](O)[C@@H]2O)c(C(C)(C)C)c1 (stereo partly drawn) [D-Glucopyranose, 6-O-[4-[[1-[[3,5-bis(1,1-dimethylethyl)-4-hydroxyphenyl]thio]-1-methylethyl]thio]-2,6-bis(1,1-dimethylethyl)phenyl]-] | 10

Continued, values first:

Row | IC50 [µM] | Compound
4 | 30 | CC(C)(Sc1cc(C(C)(C)C)c(O)c(C(C)(C)C)c1)Sc1cc(C(C)(C)C)c(OCC(O)CO)c(C(C)(C)C)c1 (centres unmarked) [1,2-Propanediol, 3-[4-[[1-[[3,5-bis(1,1-dimethylethyl)-4-hydroxyphenyl]thio]-1-methylethyl]thio]-2,6-bis(1,1-dimethylethyl)phenoxy]-]
5 | 30 | CC(C)(Sc1cc(C(C)(C)C)c(O)c(C(C)(C)C)c1)Sc1cc(C(C)(C)C)c(O/C=C/C(=O)O)c(C(C)(C)C)c1 [2-Propenoic acid, 3-[4-[[1-[[3,5-bis(1,1-dimethylethyl)-4-hydroxyphenyl]thio]-1-methylethyl]thio]-2,6-bis(1,1-dimethylethyl)phenoxy]-, (E)-]
6 | 75 | C=CC(=O)OCCCCOc1c(C(C)(C)C)cc(SC(C)(C)Sc2cc(C(C)(C)C)c(O)c(C(C)(C)C)c2)cc1C(C)(C)C [2-Propenoic acid, 4-[4-[[1-[[3,5-bis(1,1-dimethylethyl)-4-hydroxyphenyl]thio]-1-methylethyl]thio]-2,6-bis(1,1-dimethylethyl)phenoxy]butyl ester]
7 | 10 | CC(C)(Sc1cc(C(C)(C)C)c(O)c(C(C)(C)C)c1)Sc1cc(C(C)(C)C)c(OCC(=O)O)c(C(C)(C)C)c1 [Acetic acid, [4-[[1-[[3,5-bis(1,1-dimethylethyl)-4-hydroxyphenyl]thio]-1-methylethyl]thio]2,6-bis(1,1-dimethylethyl)phenoxy]-]
8 | 11 | CC(C)(Sc1cc(C(C)(C)C)c(O)c(C(C)(C)C)c1)Sc1cc(C(C)(C)C)c(OCCCC(=O)O)c(C(C)(C)C)c1 [Butanoic acid, 4-[4-[[1-[[3,5-bis(1,1-dimethylethyl)-4-hydroxyphenyl]thio]-1-methylethyl]thio]-2,6-bis(1,1-dimethylethyl)phenoxy]-]
9 | 110 | CC(C)(CO)CC(=O)Oc1c(C(C)(C)C)cc(SC(C)(C)Sc2cc(C(C)(C)C)c(O)c(C(C)(C)C)c2)cc1C(C)(C)C [Butanoic acid, 4-hydroxy-3,3-dimethyl-, 4-[[1-[[3,5-bis(1,1-dimethylethyl)-4-hydroxyphenyl]thio]-1-methylethyl]thio]-2,6-bis(1,1-dimethylethyl)phenyl ester]
10 | 15 | CC(C)(Sc1cc(C(C)(C)C)c(O)c(C(C)(C)C)c1)Sc1cc(C(C)(C)C)c(OC[C@@H](O)[C@@H](O)[C@H](O)[C@@H](O)CO)c(C(C)(C)C)c1 [D-Glucitol, 6-O-[4-[[1-[[3,5-bis(1,1-dimethylethyl)-4-hydroxyphenyl]thio]-1-methylethyl]thio]-2,6-bis(1,1-dimethylethyl)phenyl]-]
11 | 75 | CC(C)(Sc1cc(C(C)(C)C)c(O)c(C(C)(C)C)c1)Sc1cc(C(C)(C)C)c(OCC(=O)N[C@@H](CCC(=O)O)C(=O)O)c(C(C)(C)C)c1 [Glutamic acid, N-[[4-[[1-[[3,5-bis(1,1-dimethylethyl)-4-hydroxyphenyl]thio]-1-methylethyl]thio]-2,6-bis(1,1-dimethylethyl)phenoxy]acetyl]-]
12 | 5 | CC(C)(Sc1cc(C(C)(C)C)c(O)c(C(C)(C)C)c1)Sc1cc(C(C)(C)C)c(OC(=O)CN)c(C(C)(C)C)c1 [Glycine, 4-[[1-[[3,5-bis(1,1-dimethylethyl)-4-hydroxyphenyl]thio]-1-methylethyl]thio]-2,6-bis(1,1-dimethylethyl)phenyl ester]
13 | 16 | CC(C)(Sc1cc(C(C)(C)C)c(O)c(C(C)(C)C)c1)Sc1cc(C(C)(C)C)c(OCC(O)CNCC(=O)O)c(C(C)(C)C)c1 (centres unmarked) [Glycine, N-[3-[4-[[1-[[3,5-bis(1,1-dimethylethyl)-4-hydroxyphenyl]thio]-1-methylethyl]thio]-2,6-bis(1,1-dimethylethyl)phenoxy]2-hydroxypropyl]-]

Same assay, conditions: TNF added with compound, incubated overnight (approximately 16 hours)

Row | Compound | IC50 [µM]
14 | 2,6-di-tert-butyl-4-thio(3′,5′-ditert-butyl,4′-hydroxy butanedioic acid ester)phenol | 6
15 | COc1c(C(C)(C)C)cc(SCc2ccc(C(F)(F)F)cc2)cc1C(C)(C)C [2,6-di-tert-butyl-1-methoxy-4-thio(4′-trifluoromethyl)benzyl)benzene] | > 50
16 | CC(=O)OC(C)(C)CSc1cc(C(C)(C)C)c(O)c(C(C)(C)C)c1 [2,6-di-tert-butyl-4-thio(2′-acetoxy,2′-methylpropyl)phenol] | 50
17 | CC(C)(C)c1cc(SCc2ccc(F)cc2)cc(C(C)(C)C)c1O [2,6-di-tert-butyl-4-thio(4′-fluorobenzyl)phenol] | 35
18 | Cc1ccc(CSc2cc(C(C)(C)C)c(O)c(C(C)(C)C)c2)cc1 [2,6-di-tert-butyl-4-thio(4′-methylbenzyl)phenol] | 75
19 | CN(C)Cc1ccc(CSc2cc(C(C)(C)C)c(O)c(C(C)(C)C)c2)o1 [2,6-di-tert-butyl-4-thio(5′-methyl-2′-((dimethylamino)methyl)furan)phenol] | 10
20 | CN(C)c1ccc(CCOc2c(C(C)(C)C)cc(SC(C)(C)Sc3cc(C(C)(C)C)c(OCCc4ccc(N(C)C)cc4)c(C(C)(C)C)c3)cc2C(C)(C)C)cc1 [Benzenamine, 4,4′-[(1-methylethylidene)bis [thio[2,6-bis(1,1-dimethylethyl)-4,1-phenylene]oxy-2,1-ethanediyl]]bis[N,N-dimethyl-] | > 50
21 | CC(C)(Sc1cc(C(C)(C)C)c(O)c(C(C)(C)C)c1)Sc1cc(C(C)(C)C)c(OC(=O)CCC(=O)O)c(C(C)(C)C)c1 [Butanedioic acid, mono [4-[[1-[[3,5-bis(1,1-dimethylethyl)-4-hydroxyphenyl]thio]-1-methylethyl]thio]2,6-bis(1,1-dimethylethyl)phenyl] ester] | 5.6
22 | CC(C)(Sc1cc(C(C)(C)C)c(OC(=O)CN)c(C(C)(C)C)c1)Sc1cc(C(C)(C)C)c(OC(=O)CN)c(C(C)(C)C)c1 [Glycine, (1-methylethylidene)bis[bis[thio-2,6-bis(1,1-dimethylthyl)-4,1-phenylene]]ester, dihydrochloride] | > 50
23 | CC(C)(Sc1cc(C(C)(C)C)c(O)c(C(C)(C)C)c1)Sc1cc(C(C)(C)C)c(OCC2OC2CO)c(C(C)(C)C)c1 (centres unmarked) [Oxiranemethanol, 3-[[4-[[1-[[3,5-bis(1,1-dimethylethyl)-4-hydroxyphenyl]thio]-1-methylethyl]thio]-2,6-bis(1,1-dimethylethyl)phenoxy]methyl]-] | > 100
24 | CC(C)(Sc1cc(C(C)(C)C)c(O)c(C(C)(C)C)c1)Sc1cc(C(C)(C)C)c(OCC(O)C2CO2)c(C(C)(C)C)c1 (stereo not drawn) [Oxiranemethanol, α-[[4-[[1-[[3,5-bis(1,1-dimethylethyl)-4-hydroxyphenyl]thio]-1-methylethyl]thio]-2,6-bis(1,1-dimethylethyl)phenoxy]methyl]-] | 45

Same assay, conditions: at 20 μM

Row | Compound | inhibition at 20 µM [%]
25 | Cc1cc(SC(C)(C)Sc2cc(C(C)(C)C)c(O)c(C(C)(C)C)c2)cc(C)c1OC(=O)CN [Glycine, 4-[[1-[[3,5-bis(1,1-dimethylethyl)-4-hydroxyphenyl]thio]-1-methylethyl]thio]-2,6-dimethylphenyl ester] | 10

Same assay, conditions: at 50 μM

Row | Compound | VCAM-1 inhibition at [μM] [% at 50]
26 | CC(C)(C)c1cc(SCCCS(=O)(=O)O)cc(C(C)(C)C)c1O [2,6-di-tert-butyl-4-thio(3′-propanesulfonic acid)phenol] | 25
